Data as given in patent US20070004658A1, “Method and means for treatment of osteoarthritis” (priority 2004, published 2007).

System: Normal human articular chondrocytes (NHAC's)
Test: Aggrecan induction, Alcian blue stain assay
Assay type: cell-based
Conditions: primary human chondrocytes 12 days post infection, FIG. 5
Protocol: A second assay to screen for chondrocyte anabolic factors is developed by monitoring the levels of aggrecan, another major constituent of cartilage. In this assay, glycosaminoglycans on aggrecan are stained by Alcian blue. NHACs are seeded in 384 well plates and 1 day after plating infected with individual Ad-siRNA from the SilenceSelect™ collection. […] Using Ad-BMP2 as a positive control, we confirm in a series of experiments that several parameters optimized for the ColII cELISA assay are also applicable for the Alcian blue stain assay for aggrecan. These parameters include cell seeding density, MOIs of control viruses, duration of infection, and the day of readout.
NHAC's are seeded on day 0 at 1500 cells/well of a 384 well black-plate with clear bottom in 60 μl of DMEM/F12, containing 10% FBS-HI and Pen/Strep and infected the next day with 2.5 μl of Ad-BMP2 or Ad-eGFP; at an MOI of 2000. After 7 days, 10 μl of a 50 μg/ml 2-Phospho-L-ascorbic acid in assay culture medium is added to each well. […] After replacing 50% ethanol/3% acetic acid with 70% ethanol/3% acetic acid, each individual well is photographed with a SONY CCD camera, images are analyzed using a Galapagos Alcian blue quantification algorithm based on the separation of the blue signal through a color threshold procedure after a noise reduction filter. […]

With “GGTGTATGGGCTCATGTAC (adenoviral siRNA, target sequence only, chemistry not fully specified) [Ad-siRNA targeting FZD1]” the “aggrecan levels (Alcian blue staining)” value was “does not seem to induce Alcian blue staining”.
